{
  "source": "paper PMC10917151",
  "about": "(Nature chemical biology, 2023)",
  "key": {"[1]": {"target": "endogenous BRD4 in HEK293T cells (Homo sapiens, UniProt O60885)", "experiment": "Western blot of endogenous BRD4 degradation", "type": "cell-based", "details": "18 h"}, "[2]": {"target": "VHL-LgBiT (human) (UniProt P40337)", "sequence (P40337 whole entry)": "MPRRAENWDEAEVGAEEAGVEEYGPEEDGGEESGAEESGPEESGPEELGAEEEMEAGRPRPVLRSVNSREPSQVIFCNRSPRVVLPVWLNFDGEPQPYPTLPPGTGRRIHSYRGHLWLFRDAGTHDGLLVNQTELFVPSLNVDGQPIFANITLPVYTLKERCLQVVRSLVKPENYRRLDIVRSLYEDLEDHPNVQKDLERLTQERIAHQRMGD"}},
  "data": [
    {"molecule": "Cc1ncsc1-c1ccc(CNC(=O)[C@@H]2C[C@@H](O)CN2C(=O)[C@@H](NC(=O)COCCOCCOCCNC(=O)C[C@@H]2N=C(c3ccc(Cl)cc3)c3c(sc(C)c3C)-n3c(C)nnc32)C(C)(C)C)cc1", "note": "[MZ1]", "values": [
      {"measurement": "endogenous BRD4 degradation at 1 μM (Western blot)", "setting": "[1]; 1 μM", "result": "complete BRD4 removal"}
    ]},
    {"molecule": "CC(=O)N[C@H](C(=O)N1C[C@H](O)C[C@H]1C(=O)NCc1ccc(-c2scnc2C)cc1)C(C)(C)C", "note": "[VH032]", "values": [
      {"measurement": "endogenous BRD4 degradation (Western blot)", "setting": "[1]", "result": "no degradation"}
    ]},
    {"molecule": "SmBiT-BRD4^BD1 (domain or fragment)", "values": [
      {"measurement": "HiBiT assay: DC50 of degradation of HiBiT-tagged BRD4^BD1 in HEK293T with CIP-2", "setting": "[2]", "result": 17, "unit": "nM"},
      {"measurement": "HiBiT assay: Dmax of degradation of HiBiT-tagged BRD4^BD1 in HEK293T with CIP-2", "setting": "[2]", "result": 93, "unit": "%"}
    ]}
  ]
}
